One experiment has as its system rat cornea. The experiment is described as follows: Rat cornea pocket angiogenesis assay (growth factor pellets). The class given is in vivo. The protocol: (i) Preparation of sustained-release polymer: Sustained-release polymer pellets were prepared by making a 1:1 mix of a 12% solution in ethanol of the polymer (Hydron polyhydroxyethylmethacrylate), with saline containing the growth factors. The growth factors bFGF, VEGF, and EGF were dissolved at a concentration of 125 ng/μl. […] 2 μl of these solutions were added to each pellet. Thus, a pellet containing 250 ng of a single growth factor was implanted at random in the right or left eye. The other eye was implanted with a pellet containing the same dose of growth factor+HET0016. In some rats the pellet contained VEGF alone and VEGF+DDMS. 20 μg of the stable 20-HETE agonist analog WIT003 was implanted in one eye to determine whether it induces angiogenesis. […] 9 μl of the 1:1 Hydron/treatment mixture was placed on the ends of 1.5-cm rods. Each pellet contained 250 ng of its respective growth factor. For bFGF we used sucralfate to stabilize and allow sustained release of this growth factor (Volkin D B et al., Biochim Biophys Acta 1993, 1203:18-26). After drying the pellets for 1 hour, they were ready to be implanted into the cornea of rats.
(ii) Pellet implantation: The rats were anesthetized IM with ketamine (80 mg/kg) and xylazine (10 mg/kg). The eyes were topically anesthetized with 0.5% proparacaine (Ophthetic, Alcon, Tex.) and the globes proptosed with a jeweler's forceps. Using an operating microscope, a central intrastromal linear keratotomy, approximately 1.5 mm in length, was performed with a surgical blade (Bard-Parker #11; Becton Dickinson, Franklin Lake, N.Y.) parallel to the insertion of the lateral rectus muscle. A curved iris spatula (No. 10093-13, Fine Science Tools, Belmont, Calif.) approximately 1.5 mm wide and 5 mm long was inserted under the lip of the incision and gently pushed through the stroma toward the temporal limbus of the eye. The distance between the limbus and the base of the pocket was kept at 1.0±0.1 mm. The pellet was advanced to the temporal end of the pocket. Antibiotic ointment (erythromycin) was applied to the anterior surface of the eye.
(iv) Quantitation of corneal neovascularization: Seven days after pellet implantation, the rats were deeply anesthetized as previously described with ketamine and xylazine. The left ventricle was cannulated and the animal was perfused with 20-25 ml saline through the left ventricle followed by 20-25 ml India ink (waterproof drawing ink, Sanford, Bellwood, Ill.). The eyes were marked for orientation, enucleated and placed in 4% formalin for 24 hours. The cornea was dissected free from the surrounding globe and underlying iris, bisected, and loosely mounted between two glass slides, thus gently flattening the cornea. These flat mounts were examined microscopically using a Nikon Diaphot Epi-fluor 2 microscope attached to a CCD video camera and the images were digitized and saved using a computer.
Neovascularization was determined by comparing total vessel length in the control and experimental eyes. Vessel length was determined by tracing each vessel from the limbus to the pellet. Total length is the sum of these values in pixels and was determined using conventional image analysis software (Sigma Scan Pro, SPSS, Chicago, Ill.)

In a further experiment the test system is U251 human glioma cells. The experiment is described as follows: [3H]thymidine incorporation in U251 cells. Particulars: for inhibition at 10 µM: Homo sapiens. The class given is cell-based. The protocol: [^3H]Thymidine Incorporation Studies: Thymidine incorporation studies were performed with cells grown in 35-mm culture dishes. […] Palmitic acid and EtOH served as fatty acid and vehicle controls, respectively. At the end of the pulse, the medium was aspirated and the cells rinsed twice with cold 1× phosphate buffered saline (PBS). The rinsed cultures were fixed by exposure to cold 5% trichloracetic acid overnight at 4° C., after which fixed cells were extracted as described previously (Scholler et al., Mol. Pharmacol. 45: 944-954, 1994). A second set of non-fixed dishes was treated with 0.05% trypsin/EDTA to estimate cell numbers. [^3H]thymidine was detected by scintillation counting and expressed as dpm/10^3 cells.

In the next experiment the test system is p42/p44 MAPK. The experiment is described as follows: Western blot of phospho-p42/p44 MAPK in 9L cells. The class given is cell-based, rat. The settings on record: 10 μM HET0016; 4 hr, 24 hr. As to the method:
They were then pelleted by centrifugation at 1,000 g for 5 min at 4° C. The cells were lysed by adding RIPA buffer [20 mM HEPES (pH 7.4), 100 mM NaCl, 1% Nonidet P-40, 0.1% SDS, 1% deoxycholic acid, 10% glycerol, 1 mM EDTA, 1 mM NaVO3, 50 mM NaF, and protease inhibitors Set 1 (Calbiochem, La Jolla, Calif.)]. The plates were then scraped and the cells were collected in a 1.5-ml centrifuge tube, followed by incubation on ice for 30 min. The cell homogenates were centrifuged for 10 min at 14,000 g and 4° C.; the pellets were discarded and the protein concentrations in the supernatant determined by bicinchoninic acid (BCA) protein assay.
Typically, 20 μg of protein obtained from the cell homogenates was separated on a 14% Tris-glycine gel (Invitrogen) and transferred to a PVDF membrane (Biotrace, Bothell, Wash.). The membranes were blocked for 1 hr at room temperature with blocking buffer [0.2% I-Block reagent (Tropix, Bedford, Mass.), 0.1% Tween-20 in 1×PBS] and then incubated with the primary antibodies in blocking buffer overnight at 4° C. Phospho-p42/p44 MAPK (T202/Y204)(20G11), and phospho-SAPK/JNK (T183/Y185) (98F2) monoclonal antibodies were purchased from Upstate (Waltham, Mass.). […] Both phospho-p44/p42MAPK and phospho-SAPK/JNK were detected using 1:1000 antibody dilutions. […]
Background: Immunoblotting shows a protein as a band on a membrane.

The test system of the next experiment is 20-HETE. Particulars: cited from earlier work.

“Also recorded” adds a separate entry of the source. Read-outs that look alike come from different tables or passages of the source.

As to `CCCCc1ccc(N=CNO)c(C)c1` [HET0016, N-hydroxy-N′-(4-butyl-2 methylphenyl) formamidine], the “angiogenic response to inhibitor alone” value with rat cornea (20 μg HET0016 or 10 μg DDMS per pellet, no growth factor) is “Neither HET0016 nor DDMS alone elicited a response different from saline”. The “effect on the angiogenic response to EGF” value with rat cornea (EGF 250 ng/pellet + 20 μg HET0016) is recorded as “drastically decreased the angiogenic response; also recorded: obliterated; also recorded: blocks the angiogenic response”. In addition, in the experiment on rat cornea (VEGF 250 ng/pellet + 5 μg HET0016), the “reduction of angiogenic responses to VEGF” value is “about 50%”. Further, the “effect on the angiogenic response to VEGF” value is recorded as “almost completely abolished; also recorded: obliterated; also recorded: inhibit angiogenic responses to VEGF” in the experiment on rat cornea (VEGF 250 ng/pellet + 20 μg HET0016, 7 days) and “almost completely abolished” with rat cornea (VEGF 250 ng/pellet + 40 μg HET0016). In addition, in the experiment on rat cornea (bFGF 250 ng/pellet + 20 μg HET0016), the “effect on the angiogenic response to bFGF” value was “drastically decreased the angiogenic response; also recorded: obliterated; also recorded: blocks the angiogenic response”. The “inhibition of DNA synthesis ([3H]thymidine incorporation/uptake)” value in the experiment on U251 human glioma cells (10 μM HET0016, approximately 48 hr) amounted to 66%. Moreover, the inhibition at 10 µM in the experiment with U251 human glioma cells (U-251, 10 μM HET0016, approximately 24 hr, read-out: inhibition of DNA synthesis ([3H]thymidine incorporation)) was found to be 50%; with U251 human glioma cells (U-251, 10 μM HET0016, approximately 48 hr, read-out: inhibition of DNA synthesis ([3H]thymidine incorporation/uptake)) it was 65%. For the same compound, the “phosphorylation of p42/p44 MAPK” value in the experiment with p42/p44 MAPK is given as “decreases the phosphorylation; also recorded: significantly reduced the phosphorylation; also recorded: even greater after 24 hr”. For the same compound, in the experiment on 20-HETE, the “ability to reduce 20-HETE levels in vivo” value is “reduce 20-HETE levels in vivo”.

These data come from patent US20050124618A1, “Methods of modulating angiogenesis and cancer cell proliferation” (priority 2003, published 2005).
